The values that follow come from patent publication US20250305953A1, “LIGHT-EMITTING RADICAL CATION PROBE IN SITU GENERATED BY ACID INDUCTION, AND PREPARATION THEREFOR AND APPLICATION THEREOF” (SOUTH CHINA UNIVERSITY OF TECHNOLOGY, priority 2022, published 2025).

A short description of data set [1]: H&E staining and hepatorenal index analysis. The data set is classed as in vivo, Balb/c nude mice. The protocol: 2 hours after gavage, blood (approximately 500 μL) was collected through the ocular fundus venous plexus and stored in an icebox 20 minutes before centrifugation at 3,500 r.p.m. to prevent clotting. Roche Cobas E602 electrochemical light-emitting immunoassay analyzer was used to test and analyze total protein (TP), albumin (ALB), alanine aminotransferase (ALT), aspartate aminotransferase (AST), creatinine (CREA), carbon dioxide (CO2), uric acid (UA), urea (UREA) in serum samples (200 μL).
All tissues were fixed with 4% PFA, dehydrated with an ethanol solution, embedded with paraffin, and cut into […] coronal and low-temperature sections for hematoxylin and eosin (H&E) staining. Paraffin was removed by xylene washing. Then, the sections were incubated with hematoxylin and eosin for 4 min and washed with distilled water. Stained sections were examined by using the Nikon ECLIPSE 80i microscope.

Data set [2] in a line: In vivo imaging with laparotomy. The conditions noted are these: dissected after imaging. Also on record: species or system Balb/c nude mice. An excerpt:
The mice were anesthetized beforehand, and the gastrointestinal tract was then exposed by a single incision in the abdomen of the mice.

The conditions of data set [3]: compared with P3^⋅+.
Protocol: Animal experiments: male eight-week-old Balb/c nude mice were purchased from Guangzhou Yancheng Biotechnology Co. Ltd. The mice were adaptively housed for one week and fasted for 24 hours before gavage.
Subsequently, the in vivo fluorescence imaging was performed at room temperature by using the small animal imaging instrument Bruker MI SE 721. The imaging was performed every 10 min until 60 min, every 30 min until 120 min, and then every 60 min until 180 min. Two imaging steps were performed sequentially: 590 nm/700 nm, with exposure time being 60 s, and white light exposure time being 0.175 s. […] In the same conditions, quantitative analysis of fluorescence imaging was performed by using the instrument Bruker MI SE 721. The quantitative analysis of fluorescence was performed on the gastric signals in the mice at all the time points above. The mean value of fluorescence at three sites in the gastric region at 0 min was taken as I0, and the mean value of fluorescence at three sites in the gastric region at other time points was taken as I. A semi-quantitative analysis of the change of the gastric signals in the mice was performed by means of the fluorescence ratio (I/I0). In addition, the mice were euthanized at different time points, and the gastrointestinal tracts of the mice were dissected out for white light photography.
The procedure of data set [4]:
30 μL of DMSO stock solution (200 mM) of the compound P6 (4-(piperidine-1-methylene)-2,5-dimethyl-3-hydroxymethylene-^1H-pyrrole) was added to 2970 μL of the acidic buffer solution (pH=2.0-3.0).
After being mixed well, tests of the time-dependent ultraviolet-visible absorption spectrum and fluorescence spectrum were performed (2 h).

As to `Cc1cc(CO)c(C)n1-c1ccccc1` [P3, 2,5-dimethyl-3-hydroxymethylene-1-phenyl-^1H-pyrrole], the “H&E histology of major visceral organs (stomach, liver, spleen, kidney, lung, heart)” value in data set [1] (2 hours after gavage of 1.5 mg in 70 μL water, compared with control group) was “no obvious injury or inflammatory lesion”. Moreover, the biocompatibility entry in data set [1] (generated in situ in the stomach, conclusion) was “good biocompatibility”. For the same compound, the “fluorescence of visceral organs other than the gastrointestinal tract” value in data set [2] is on record as “without any fluorescence signal”.
For the compound `Cc1[nH]c(C)c(CN2CCCCC2)c1CO` [P6, 4-(piperidine-1-methylene)-2,5-dimethyl-3-hydroxymethylene-^1H-pyrrole], the gastrointestinal imaging effect entry in data set [3] is recorded as “not as good as that of P3^⋅+”. Also, the “time for conversion into the radical cation” value in data set [4] (acidic buffer solution pH=2.0-3.0, atmosphere of air) is not above 30 min. Besides, in data set [4] (compared with P3), the conversion efficiency result is given as “lower conversion efficiency” and the light emission result is on record as “weaker light emission”.
